The kinase profiling compilation of Christmann-Franck et al. (2016)
One block for each compound: values may come before it.

Columns and labels:
Test in all cases: Caliper, Mobility shift assay off-chip
PRKX (human) = PRKX (human) (UniProt P51817)
EPHB2 (human) = EPHB2 (human) (UniProt P29323)
FGFR4 (human) = FGFR4 (human) (UniProt P22455)
VRK2 (human) = VRK2 (human) (UniProt Q86Y07)
EPHB3 (human) = EPHB3 (human) (UniProt P54753)
MAP2K7 (human) = MAP2K7 (human) (UniProt O14733)
CDK2 CCNE1 (human) = CDK2 CCNE1 (human) (UniProt P24864+P24941)
PTK2 (human) = PTK2 (human) (UniProt Q05397)
HCK (human) = HCK (human) (UniProt P08631)
AKT3 (human) = AKT3 (human) (UniProt Q9Y243)
STK17A (human) = STK17A (human) (UniProt Q9UEE5)
PLK2 (human) = PLK2 (human) (UniProt Q9NYY3)
ITK (human) = ITK (human) (UniProt Q08881)
[1] = test system: MAPK14 (human), Q16539 [T106M]
[2] = test system: PDGFRA (human), P16234 [V561D]
SRPK3 (human) = SRPK3 (human) (UniProt Q9UPE1)
RPS6KA2 KD1 KD2 (human) = RPS6KA2 KD1 KD2 (human) (UniProt Q15349)
MAPK9 (human) = MAPK9 (human) (UniProt P45984)
ABL2 (human) = ABL2 (human) (UniProt P42684)
LCK (human) = LCK (human) (UniProt P06239)
SGK2 (human) = SGK2 (human) (UniProt Q9HBY8)
MAPKAPK3 (human) = MAPKAPK3 (human) (UniProt Q16644)
PHKG2 (human) = PHKG2 (human) (UniProt P15735)
DCLK2 (human) = DCLK2 (human) (UniProt Q8N568)
CDK5 CDK5R1 p25 (human) = CDK5 CDK5R1 p25 (human) (UniProt Q15078+Q00535)
[3] = test system: FLT3 (human), P36888 [D835Y]
RPS6KA4 KD1 KD2 (human) = RPS6KA4 KD1 KD2 (human) (UniProt O75676)
PRKD1 (human) = PRKD1 (human) (UniProt Q15139)
AKT2 (human) = AKT2 (human) (UniProt P31751)
PAK7 (human) = PAK7 (human) (UniProt Q9P286)
FGFR2 (human) = FGFR2 (human) (UniProt P21802)
MET (human) = MET (human) (UniProt P08581)
CDC42BPA (human) = CDC42BPA (human) (UniProt Q5VT25)
TSSK2 (human) = TSSK2 (human) (UniProt Q96PF2)
TAOK3 (human) = TAOK3 (human) (UniProt Q9H2K8)
CAMK1D (human) = CAMK1D (human) (UniProt Q8IU85)
INSRR (human) = INSRR (human) (UniProt P14616)
FGR (human) = FGR (human) (UniProt P09769)
BMX (human) = BMX (human) (UniProt P51813)
SIK1 (human) = SIK1 (human) (UniProt P57059)
EPHB4 (human) = EPHB4 (human) (UniProt P54760)

LCK (human), sequence (P06239 whole entry, looked up): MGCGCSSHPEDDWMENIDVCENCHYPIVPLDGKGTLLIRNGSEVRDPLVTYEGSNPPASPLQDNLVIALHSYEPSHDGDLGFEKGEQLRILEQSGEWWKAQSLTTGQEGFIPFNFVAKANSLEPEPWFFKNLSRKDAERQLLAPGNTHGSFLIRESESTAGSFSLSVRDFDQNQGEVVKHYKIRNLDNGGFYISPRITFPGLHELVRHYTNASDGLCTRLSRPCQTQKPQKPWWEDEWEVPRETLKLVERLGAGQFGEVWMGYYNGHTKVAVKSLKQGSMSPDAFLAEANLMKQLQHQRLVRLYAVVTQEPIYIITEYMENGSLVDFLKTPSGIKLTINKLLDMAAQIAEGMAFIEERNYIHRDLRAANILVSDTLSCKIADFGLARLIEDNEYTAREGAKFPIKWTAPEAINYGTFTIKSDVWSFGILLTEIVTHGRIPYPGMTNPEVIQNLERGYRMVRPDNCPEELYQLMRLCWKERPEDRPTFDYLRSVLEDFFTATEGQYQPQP
HCK (human), sequence (P08631 whole entry, looked up): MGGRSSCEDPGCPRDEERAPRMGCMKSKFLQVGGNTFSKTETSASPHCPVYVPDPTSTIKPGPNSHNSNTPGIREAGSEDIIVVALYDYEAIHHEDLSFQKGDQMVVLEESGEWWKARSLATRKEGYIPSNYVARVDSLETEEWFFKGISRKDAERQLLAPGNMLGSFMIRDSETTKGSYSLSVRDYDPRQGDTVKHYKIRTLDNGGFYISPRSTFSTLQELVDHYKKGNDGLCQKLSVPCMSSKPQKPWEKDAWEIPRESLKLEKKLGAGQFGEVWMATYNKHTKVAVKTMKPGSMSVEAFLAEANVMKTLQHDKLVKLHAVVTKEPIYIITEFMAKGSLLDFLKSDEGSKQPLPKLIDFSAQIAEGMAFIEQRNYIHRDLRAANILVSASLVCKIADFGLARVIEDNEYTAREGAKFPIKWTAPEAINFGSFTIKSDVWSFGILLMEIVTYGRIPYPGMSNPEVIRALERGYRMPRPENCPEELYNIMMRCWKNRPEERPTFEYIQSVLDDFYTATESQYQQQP
SGK2 (human), sequence (Q9HBY8 whole entry, looked up): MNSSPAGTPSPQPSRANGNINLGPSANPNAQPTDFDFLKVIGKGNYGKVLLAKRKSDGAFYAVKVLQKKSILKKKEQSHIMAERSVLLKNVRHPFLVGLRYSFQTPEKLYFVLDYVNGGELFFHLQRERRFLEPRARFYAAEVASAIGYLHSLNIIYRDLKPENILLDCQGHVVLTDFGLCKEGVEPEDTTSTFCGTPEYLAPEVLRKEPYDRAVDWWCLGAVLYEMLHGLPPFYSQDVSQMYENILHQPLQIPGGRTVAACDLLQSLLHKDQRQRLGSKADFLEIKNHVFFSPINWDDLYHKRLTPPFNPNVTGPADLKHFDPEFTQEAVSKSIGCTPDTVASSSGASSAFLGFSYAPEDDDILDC
SRPK3 (human), sequence (Q9UPE1 whole entry, looked up): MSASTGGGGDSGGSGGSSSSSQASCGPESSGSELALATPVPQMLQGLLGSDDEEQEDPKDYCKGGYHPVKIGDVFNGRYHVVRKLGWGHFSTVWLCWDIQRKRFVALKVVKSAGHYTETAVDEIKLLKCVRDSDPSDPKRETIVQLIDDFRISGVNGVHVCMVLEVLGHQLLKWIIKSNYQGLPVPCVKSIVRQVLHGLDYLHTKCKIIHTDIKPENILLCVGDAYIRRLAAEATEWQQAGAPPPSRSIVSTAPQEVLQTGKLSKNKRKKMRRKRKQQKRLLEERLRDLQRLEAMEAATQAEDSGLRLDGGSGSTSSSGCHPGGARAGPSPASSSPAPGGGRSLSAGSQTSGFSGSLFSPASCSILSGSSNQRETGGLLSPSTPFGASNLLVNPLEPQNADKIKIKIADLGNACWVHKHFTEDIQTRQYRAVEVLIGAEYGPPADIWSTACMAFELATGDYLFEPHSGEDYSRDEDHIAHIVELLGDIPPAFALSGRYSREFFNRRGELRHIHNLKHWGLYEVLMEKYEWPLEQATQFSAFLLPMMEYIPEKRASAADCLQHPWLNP
CDK5 CDK5R1 p25 (human), sequence (Q00535 whole entry, looked up): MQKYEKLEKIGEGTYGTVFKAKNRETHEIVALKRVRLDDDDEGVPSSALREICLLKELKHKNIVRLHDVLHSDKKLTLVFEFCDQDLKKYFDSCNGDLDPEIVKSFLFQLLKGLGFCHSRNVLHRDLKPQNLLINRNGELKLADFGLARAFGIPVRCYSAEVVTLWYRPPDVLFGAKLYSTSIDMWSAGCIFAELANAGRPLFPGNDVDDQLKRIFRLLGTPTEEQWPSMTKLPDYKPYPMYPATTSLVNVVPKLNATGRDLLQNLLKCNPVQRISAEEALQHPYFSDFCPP
CDK5 CDK5R1 p25 (human), sequence (Q15078 whole entry, looked up): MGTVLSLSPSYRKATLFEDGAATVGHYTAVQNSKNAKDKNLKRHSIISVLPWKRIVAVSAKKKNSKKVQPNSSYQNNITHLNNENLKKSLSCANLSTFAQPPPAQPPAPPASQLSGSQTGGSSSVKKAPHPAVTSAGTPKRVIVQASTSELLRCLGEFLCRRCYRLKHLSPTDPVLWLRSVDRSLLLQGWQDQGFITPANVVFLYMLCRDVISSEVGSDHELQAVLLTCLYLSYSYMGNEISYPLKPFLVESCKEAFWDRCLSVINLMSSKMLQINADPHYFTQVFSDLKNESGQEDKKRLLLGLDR
MAP2K7 (human), sequence (O14733 whole entry, looked up): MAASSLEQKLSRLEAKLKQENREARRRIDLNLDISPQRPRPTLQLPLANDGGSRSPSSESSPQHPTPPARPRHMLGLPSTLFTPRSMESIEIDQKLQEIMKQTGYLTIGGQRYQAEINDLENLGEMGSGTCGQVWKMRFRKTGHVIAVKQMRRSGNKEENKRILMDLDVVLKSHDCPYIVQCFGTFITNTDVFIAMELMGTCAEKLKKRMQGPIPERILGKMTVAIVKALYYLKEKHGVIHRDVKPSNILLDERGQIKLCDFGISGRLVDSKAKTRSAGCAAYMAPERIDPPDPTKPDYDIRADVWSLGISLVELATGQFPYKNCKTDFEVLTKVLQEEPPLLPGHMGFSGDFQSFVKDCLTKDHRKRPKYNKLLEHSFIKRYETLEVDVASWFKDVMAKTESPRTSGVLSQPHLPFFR
AKT3 (human), sequence (Q9Y243 whole entry, looked up): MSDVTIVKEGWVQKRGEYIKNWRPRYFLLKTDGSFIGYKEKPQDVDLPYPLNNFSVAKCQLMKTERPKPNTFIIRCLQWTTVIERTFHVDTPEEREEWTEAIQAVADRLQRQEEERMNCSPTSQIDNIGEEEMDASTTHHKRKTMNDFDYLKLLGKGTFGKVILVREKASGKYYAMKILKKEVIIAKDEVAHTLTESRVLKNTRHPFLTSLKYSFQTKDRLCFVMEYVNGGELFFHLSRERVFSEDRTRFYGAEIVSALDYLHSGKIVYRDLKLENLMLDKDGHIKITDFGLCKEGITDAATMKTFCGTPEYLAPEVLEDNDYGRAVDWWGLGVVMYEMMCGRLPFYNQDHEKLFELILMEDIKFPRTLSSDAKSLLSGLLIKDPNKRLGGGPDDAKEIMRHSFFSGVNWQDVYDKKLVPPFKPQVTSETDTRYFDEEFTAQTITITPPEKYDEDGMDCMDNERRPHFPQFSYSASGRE
FGR (human), sequence (P09769 whole entry, looked up): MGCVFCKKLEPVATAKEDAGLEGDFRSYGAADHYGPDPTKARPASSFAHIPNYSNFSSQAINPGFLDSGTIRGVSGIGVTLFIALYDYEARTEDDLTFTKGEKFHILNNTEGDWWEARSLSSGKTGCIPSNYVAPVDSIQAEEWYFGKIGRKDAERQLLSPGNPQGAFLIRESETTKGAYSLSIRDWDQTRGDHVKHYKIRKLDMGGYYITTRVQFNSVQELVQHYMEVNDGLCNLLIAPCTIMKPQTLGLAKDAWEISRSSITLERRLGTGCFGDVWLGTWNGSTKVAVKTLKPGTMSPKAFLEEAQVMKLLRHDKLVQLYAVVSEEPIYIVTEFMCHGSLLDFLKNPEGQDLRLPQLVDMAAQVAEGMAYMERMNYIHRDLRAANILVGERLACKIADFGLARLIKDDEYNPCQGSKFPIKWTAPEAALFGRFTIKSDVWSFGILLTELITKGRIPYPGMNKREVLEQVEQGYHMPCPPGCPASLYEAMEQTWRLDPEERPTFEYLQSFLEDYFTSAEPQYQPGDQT
MAPKAPK3 (human), sequence (Q16644 whole entry, looked up): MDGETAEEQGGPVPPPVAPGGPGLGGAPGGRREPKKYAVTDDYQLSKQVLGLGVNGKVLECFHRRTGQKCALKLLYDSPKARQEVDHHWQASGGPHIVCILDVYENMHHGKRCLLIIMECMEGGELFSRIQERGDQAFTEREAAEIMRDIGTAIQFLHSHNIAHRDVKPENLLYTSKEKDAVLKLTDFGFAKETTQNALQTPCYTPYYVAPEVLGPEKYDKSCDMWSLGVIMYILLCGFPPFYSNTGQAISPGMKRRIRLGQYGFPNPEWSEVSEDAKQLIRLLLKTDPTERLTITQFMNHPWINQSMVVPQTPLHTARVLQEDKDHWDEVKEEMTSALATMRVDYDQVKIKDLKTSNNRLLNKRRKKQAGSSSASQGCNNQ
MAPK9 (human), sequence (P45984 whole entry, looked up): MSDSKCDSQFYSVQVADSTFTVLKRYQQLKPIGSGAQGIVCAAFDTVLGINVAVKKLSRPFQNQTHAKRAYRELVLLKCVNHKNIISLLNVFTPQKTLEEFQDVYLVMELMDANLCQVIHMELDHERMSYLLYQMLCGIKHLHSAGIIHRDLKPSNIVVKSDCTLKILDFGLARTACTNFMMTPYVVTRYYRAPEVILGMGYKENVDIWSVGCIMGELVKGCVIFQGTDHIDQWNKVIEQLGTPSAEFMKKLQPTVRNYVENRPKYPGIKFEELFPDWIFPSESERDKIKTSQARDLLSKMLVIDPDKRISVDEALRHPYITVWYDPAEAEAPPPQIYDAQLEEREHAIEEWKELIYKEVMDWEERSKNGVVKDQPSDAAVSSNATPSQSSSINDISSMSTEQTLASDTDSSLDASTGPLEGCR

residual activity (PRKX (human); compound 1.0 µM): 103%
residual activity (EPHB2 (human); compound 1.0 µM): 92%
residual activity (FGFR4 (human); compound 1.0 µM): 105%
residual activity (VRK2 (human); compound 1.0 µM): 111%
residual activity (EPHB3 (human); compound 1.0 µM): 132%
residual activity (MAP2K7 (human); compound 1.0 µM): 107%
residual activity (CDK2 CCNE1 (human); compound 1.0 µM): 116%
residual activity (PTK2 (human); compound 1.0 µM): 75%
residual activity (HCK (human); compound 1.0 µM): 31%
residual activity (AKT3 (human); compound 1.0 µM): 102%
residual activity (STK17A (human); compound 1.0 µM): 62%
residual activity (PLK2 (human); compound 1.0 µM): 72%
residual activity (ITK (human); compound 1.0 µM): 113%
residual activity ([1]; compound 1.0 µM): 103%
residual activity ([2]; compound 1.0 µM): 1%
residual activity (SRPK3 (human); compound 1.0 µM): 115%
residual activity (RPS6KA2 KD1 KD2 (human); compound 1.0 µM): 7%
residual activity (MAPK9 (human); compound 1.0 µM): 116%
residual activity (ABL2 (human); compound 1.0 µM): 104%
residual activity (LCK (human); compound 1.0 µM): 58%
residual activity (SGK2 (human); compound 1.0 µM): 86%
residual activity (MAPKAPK3 (human); compound 1.0 µM): 95%
residual activity (PHKG2 (human); compound 1.0 µM): 76%
residual activity (DCLK2 (human); compound 1.0 µM): 112%
residual activity (CDK5 CDK5R1 p25 (human); compound 1.0 µM): 104%
residual activity ([3]; compound 1.0 µM): 9%
residual activity (RPS6KA4 KD1 KD2 (human); compound 1.0 µM): 61%
residual activity (PRKD1 (human); compound 1.0 µM): 86%
residual activity (AKT2 (human); compound 1.0 µM): 90%
residual activity (PAK7 (human); compound 1.0 µM): 103%
residual activity (FGFR2 (human); compound 1.0 µM): 56%
residual activity (MET (human); compound 1.0 µM): 96%
residual activity (CDC42BPA (human); compound 1.0 µM): 111%
residual activity (TSSK2 (human); compound 1.0 µM): 106%
residual activity (TAOK3 (human); compound 1.0 µM): 104%
residual activity (CAMK1D (human); compound 1.0 µM): 55%
residual activity (INSRR (human); compound 1.0 µM): 104%
residual activity (FGR (human); compound 1.0 µM): 57%
residual activity (BMX (human); compound 1.0 µM): 89%
residual activity (SIK1 (human); compound 1.0 µM): 23%
residual activity (EPHB4 (human); compound 1.0 µM): 137%
Compound: C[C@@H](Nc1nc2c(C#CC3CC3)c[nH]c(=O)c2c2cc(-c3cn[nH]c3)ccc12)C(C)(C)C

residual activity (EPHB2 (human); compound 1.0 µM): 239%
residual activity (FGFR4 (human); compound 1.0 µM): 99%
residual activity (EPHB3 (human); compound 1.0 µM): 136%
residual activity (MAP2K7 (human); compound 1.0 µM): 103%
residual activity (HCK (human); compound 1.0 µM): 148%
residual activity (AKT3 (human); compound 1.0 µM): 90%
residual activity (STK17A (human); compound 1.0 µM): 23%
residual activity (PLK2 (human); compound 1.0 µM): 102%
residual activity (ITK (human); compound 1.0 µM): 127%
residual activity (SRPK3 (human); compound 1.0 µM): 90%
residual activity (RPS6KA2 KD1 KD2 (human); compound 1.0 µM): 2%
residual activity (MAPK9 (human); compound 1.0 µM): 95%
residual activity (ABL2 (human); compound 1.0 µM): 111%
residual activity (LCK (human); compound 1.0 µM): 82%
residual activity (SGK2 (human); compound 1.0 µM): 70%
residual activity (MAPKAPK3 (human); compound 1.0 µM): 105%
residual activity (CDK5 CDK5R1 p25 (human); compound 1.0 µM): 108%
residual activity ([3]; compound 1.0 µM): 5%
residual activity (RPS6KA4 KD1 KD2 (human); compound 1.0 µM): 43%
residual activity (PRKD1 (human); compound 1.0 µM): 20%
residual activity (AKT2 (human); compound 1.0 µM): 94%
residual activity (FGFR2 (human); compound 1.0 µM): 99%
residual activity (MET (human); compound 1.0 µM): 117%
residual activity (TSSK2 (human); compound 1.0 µM): 56%
residual activity (INSRR (human); compound 1.0 µM): 103%
residual activity (FGR (human); compound 1.0 µM): 71%
residual activity (BMX (human); compound 1.0 µM): 94%
residual activity (SIK1 (human); compound 1.0 µM): 18%
residual activity (EPHB4 (human); compound 1.0 µM): 84%
Compound: Cc1n[nH]c2c1c(=O)n(CCCN)c1ccc(Cl)cc21

Compound: O=C(N[C@@H](COc1ccc2[nH]c(=O)[nH]c2c1)c1ccccc1)c1cccn(Cc2ccc(F)c(F)c2)c1=O
residual activity (PRKX (human); compound 10.0 µM): 107%
residual activity (EPHB2 (human); compound 10.0 µM): 90%
residual activity (FGFR4 (human); compound 10.0 µM): 108%
residual activity (VRK2 (human); compound 10.0 µM): 99%
residual activity (EPHB3 (human); compound 10.0 µM): 129%
residual activity (MAP2K7 (human); compound 10.0 µM): 95%
residual activity (CDK2 CCNE1 (human); compound 10.0 µM): 104%
residual activity (PTK2 (human); compound 10.0 µM): 103%
residual activity (HCK (human); compound 10.0 µM): 110%
residual activity (AKT3 (human); compound 10.0 µM): 99%
residual activity (STK17A (human); compound 10.0 µM): 116%
residual activity (PLK2 (human); compound 10.0 µM): 97%
residual activity (ITK (human); compound 10.0 µM): 108%
residual activity ([1]; compound 10.0 µM): 113%
residual activity ([2]; compound 10.0 µM): 112%
residual activity (SRPK3 (human); compound 10.0 µM): 114%
residual activity (RPS6KA2 KD1 KD2 (human); compound 10.0 µM): 102%
residual activity (MAPK9 (human); compound 10.0 µM): 100%
residual activity (ABL2 (human); compound 10.0 µM): 112%
residual activity (LCK (human); compound 10.0 µM): 108%
residual activity (SGK2 (human); compound 10.0 µM): 97%
residual activity (MAPKAPK3 (human); compound 10.0 µM): 102%
residual activity (PHKG2 (human); compound 10.0 µM): 101%
residual activity (DCLK2 (human); compound 10.0 µM): 121%
residual activity (CDK5 CDK5R1 p25 (human); compound 10.0 µM): 111%
residual activity ([3]; compound 10.0 µM): 99%
residual activity (RPS6KA4 KD1 KD2 (human); compound 10.0 µM): 106%
residual activity (PRKD1 (human); compound 10.0 µM): 100%
residual activity (AKT2 (human); compound 10.0 µM): 103%
residual activity (PAK7 (human); compound 10.0 µM): 100%
residual activity (FGFR2 (human); compound 10.0 µM): 92%
residual activity (MET (human); compound 10.0 µM): 95%
residual activity (CDC42BPA (human); compound 10.0 µM): 101%
residual activity (TSSK2 (human); compound 10.0 µM): 115%
residual activity (TAOK3 (human); compound 10.0 µM): 98%
residual activity (CAMK1D (human); compound 10.0 µM): 95%
residual activity (INSRR (human); compound 10.0 µM): 108%
residual activity (FGR (human); compound 10.0 µM): 100%
residual activity (BMX (human); compound 10.0 µM): 139%
residual activity (SIK1 (human); compound 10.0 µM): 102%
residual activity (EPHB4 (human); compound 10.0 µM): 102%
